Here are results for four compounds from patent US20120004180A1, “METHOD OF PRODUCING A NOVEL OPIOID PEPTIDE” (priority 2008, published 2012).

The test system of one data set is pain. Conditions: experiments on animals; intrathecal application in rats; cited from earlier work.
The test system of the next data set is physical dependence. Conditions: compared with morphine; cited from earlier work.
Another data set deals with thermal pain. As to the kind of experiment: Thermal pain sensitivity after subarachnoid administration via cannula. Type of data set: in vivo. The following applies: rats, dose of 5 mg. An excerpt: Two days prior to the experiments, rats were implanted with cannulae into the subarachnoid cavity. During the experiment, the analgesic activity was examined by administering the peptide analogue (N′-Tyrosyl-D-alanyl-glycyl-phenylalanyl, N″-alpha-methyl-4-(2-methylpropyl) benzenoacetyl-D-tryptophanyl)-hydrazide.

Data set [1] deals with acute pain in mice with inflammation. As to the kind of experiment: Tail immersion in water heated to 55° C. in murine melanoma metastasis model with inflammation. The data set is classed as in vivo. Conditions: two weeks after murine melanoma cells into the hind limb, intraperitoneal injection 30 mg/kg. On the procedure: In an animal metastasis model, inflammation was induced by administering around a million cells of murine melanoma into the hind limb. After two days, a progressing inflammation was observed, elicited by tumour take. After two weeks of tumour development, the analgesic activity of (N′-Tyrosyl-D-alanyl-glycyl-phenylalanyl, N″-salicyl-glycyl-D-tryptophanyl)-hydrazide was examined against acute pain caused by tail immersion in water heated to 55° C.

For data set [2] the test system is unchanged. As to the kind of experiment: Tail immersion in water at 55° C. in mice with Freund's adjuvant-induced inflammation. The data set is classed as in vivo. Conditions: one week after Freund's adjuvant into the limb, intravenous injection 20 mg/kg. As to the method:
Inflammation was induced in mice through application of Freund's adjuvant into the limb. A progressing inflammation was observed after two days. After a week, the analgesic effects on acute pain of the peptide analogue HCl.Tyr-D-Ala-Gly-Phe-NHNH-(CBz-D-Trp-) were examined via the immersion of the tail in water at 55° C.

For `C[C@@H](NC(=O)[C@@H](N)Cc1ccc(O)cc1)C(=O)NCC(=O)N[C@@H](Cc1ccccc1)C(=O)NNC(=O)[C@H](Cc1ccccc1)NC(=O)CNC(=O)[C@@H](C)NC(=O)[C@@H](N)Cc1ccc(O)cc1` [biphalin], the analgesic activity entry with pain is “significant analgesic activity”. In the data set with physical dependence, the “habit-forming activity (physical dependence)” value is given as “much lesser habit-forming activity”. Turning to “(N′-Tyrosyl-D-alanyl-glycyl-phenylalanyl, N″-alpha-methyl-4-(2-methylpropyl) benzenoacetyl-D-tryptophanyl)-hydrazide [Example III]”, in the data set on thermal pain, the “duration of elimination of sensitivity to thermal pain” value worked out at 1 h and the “sensitivity to thermal pain” value is listed as “complete elimination”. As to “(N′-Tyrosyl-D-alanyl-glycyl-phenylalanyl, N″-salicyl-glycyl-D-tryptophanyl)-hydrazide [Example II]”, the “pain reaction (analgesic activity against acute pain, tail immersion)” value in data set [1] is “completely mitigated”. In the case of “(N′-tyrosyl-D-alanyl-glycyl-phenylalanyl, N″-benzoxycarbonyl-D-tryptophanyl) hydrazide [Example I]”, the “pain reaction (analgesic effect on acute pain, tail immersion)” value in data set [2] was “completely mitigated”.
